Results reported in ChEMBL document CHEMBL4145484 (Eur J Med Chem, 2018).

Legend:
[1] = biological target: T1, Amine oxidase [flavin-containing] B (Homo sapiens, UniProt P27338); test: Inhibition of recombinant human MAO-B using p-tyramine as substrate preincubated for 15 mins followed by substrate addition measured over 15 mins by Amplex red reagent-based fluorimetric method
T1 sequence (P27338 whole entry): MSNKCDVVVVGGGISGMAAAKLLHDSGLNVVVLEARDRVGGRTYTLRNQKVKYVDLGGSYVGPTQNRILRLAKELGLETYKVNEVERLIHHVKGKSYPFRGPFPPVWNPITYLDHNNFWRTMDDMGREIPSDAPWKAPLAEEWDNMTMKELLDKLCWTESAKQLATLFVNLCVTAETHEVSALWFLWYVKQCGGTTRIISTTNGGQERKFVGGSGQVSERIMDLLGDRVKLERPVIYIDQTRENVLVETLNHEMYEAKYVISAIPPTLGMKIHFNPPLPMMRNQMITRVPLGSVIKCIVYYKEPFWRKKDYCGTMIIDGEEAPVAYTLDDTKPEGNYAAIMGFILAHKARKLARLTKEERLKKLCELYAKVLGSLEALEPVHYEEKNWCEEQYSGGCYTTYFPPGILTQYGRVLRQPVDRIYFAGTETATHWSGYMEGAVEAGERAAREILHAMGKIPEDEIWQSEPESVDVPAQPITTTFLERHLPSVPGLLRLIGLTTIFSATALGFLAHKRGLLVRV

Homo sapiens = organism: Homo sapiens; test: Selectivity index, ratio of IC50 for recombinant human MAO-A to IC50 for recombinant human MAO-B
[2] = biological target: T2, Amine oxidase [flavin-containing] A (Homo sapiens, UniProt P21397); test: Inhibition of recombinant human MAO-A using p-tyramine as substrate preincubated for 15 mins followed by substrate addition measured over 15 mins by Amplex red reagent-based fluorimetric method
T2 sequence (P21397 whole entry): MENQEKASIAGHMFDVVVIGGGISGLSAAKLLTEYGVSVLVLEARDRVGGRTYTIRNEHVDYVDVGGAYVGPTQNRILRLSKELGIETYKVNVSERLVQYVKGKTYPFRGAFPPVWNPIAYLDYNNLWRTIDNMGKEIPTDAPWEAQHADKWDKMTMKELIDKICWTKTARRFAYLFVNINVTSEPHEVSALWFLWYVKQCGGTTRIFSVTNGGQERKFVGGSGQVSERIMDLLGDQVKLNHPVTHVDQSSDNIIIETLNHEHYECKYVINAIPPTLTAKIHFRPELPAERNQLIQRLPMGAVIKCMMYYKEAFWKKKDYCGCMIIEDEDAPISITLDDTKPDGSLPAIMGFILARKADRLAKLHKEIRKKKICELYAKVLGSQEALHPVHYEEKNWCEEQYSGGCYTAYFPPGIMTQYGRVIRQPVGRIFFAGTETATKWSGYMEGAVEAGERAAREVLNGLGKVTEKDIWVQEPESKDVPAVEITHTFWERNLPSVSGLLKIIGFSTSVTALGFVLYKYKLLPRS

IC50 [1] [µM]	Ratio IC50 (Homo sapiens)	IC50 [2] [µM]	SMILES
5.87	> 10.2	> 60	C#CCNC1CCc2c(OCCc3cccc(Cl)c3)cccc21 (centres undefined)
1.97	7.84	15.4	C#CCNC1CCc2c(OCc3ccccc3)cccc21 (centres undefined)
6.24	> 9.62	> 60	C#CCNC1CCc2c(SCc3ccccc3)cccc21 (centres undefined)
5.38	7.93	42.7	C#CCNC1CCc2c(OCCCOc3ccc(C(C)C)cc3)cccc21 (centres undefined)
10.5	2.99	31.4	C#CCNC1CCc2c(OCCCOc3ccc(CC)cc3)cccc21 (centres undefined)
3.39	> 17.7	> 60	C#CCNC1CCc2c(OCCOc3cccc4ccccc34)cccc21 (centres undefined)
0.28	18.6	5.2	C#CCNC1CCc2c(OCc3cccc(F)c3)cccc21 (centres undefined)
0.65	14.7	9.55	C#CCNC1CCc2c(OCc3cccc(Br)c3)cccc21 (centres undefined)
10.2	> 5.87	> 60	C#CCNC1CCc2c(OCCCOc3ccccc3)cccc21 (centres undefined)
0.55	20.4	11.2	C#CCNC1CCc2c(OCc3cccc(C)c3)cccc21 (centres undefined)
0.02	466	9.33	C#CCNC1CCc2c(OCCc3cccc(NC(=O)c4ccc(Cl)cc4)c3)cccc21 (centres undefined)
1.41	5.12	7.22	C#CCNC1CCc2c(OCc3ccc(F)c(F)c3)cccc21 (centres undefined)
6.91	> 8.68	> 60	C#CCNC1CCc2c(OCCCOc3cc(C)c(Cl)c(C)c3)cccc21 (centres undefined)
1.39	> 43.7	> 60	C#CCNC1CCc2c(OCc3ccc(C(F)(F)F)cc3)cccc21 (centres undefined)
> 60	–	> 60	C#CCNC1CCc2c(OCCCOc3cccc4ccccc34)cccc21 (centres undefined)
5.52	1.5	8.3	C#CCNC1CCc2c(OCCOc3cccc(NC(C)=O)c3)cccc21 (centres undefined)
0.33	21.2	7	C#CCNC1CCc2c(OCc3cccc(Cl)c3)cccc21 (centres undefined)
3.87	2.35	9.1	C#CCNC1CCc2c(OCCc3ccccc3)cccc21 (centres undefined)
6.21	> 9.66	> 60	C#CCNC1CCc2c(OCc3ccc4ccccc4c3)cccc21 (centres undefined)
1.87	4.17	7.8	C#CCNC1CCc2c(OCc3ccc(F)cc3)cccc21 (centres undefined)
4.57	3.08	14.1	C#CCNC1CCc2c(OCCOc3ccccc3)cccc21 (centres undefined)
2.51	4.07	10.2	C#CCNC1CCc2c(OCCc3ccc(Cl)cc3)cccc21 (centres undefined)
1.09	3.97	4.33	C#CCNC1CCc2c(OCc3ccc(C)cc3)cccc21 (centres undefined)
6.91	> 8.68	> 60	C#CCNC1CCc2c(OCCOc3cccc(NC(=O)CCl)c3)cccc21 (centres undefined)
18	> 3.33	> 60	C#CCNC1CCc2c(OCCCOc3cccc(I)c3)cccc21 (centres undefined)
